In BindingDB's records for doi:10.1021/jm0496077 (University of Southern California, 2005):

Tests used:
[1] = molecular target: Integrase (Human immunodeficiency virus 1); assay: Inhibitory concentration against human immuno deficiency virus type 1 integrase (3'-processing)
[2] = molecular target: Integrase (Human immunodeficiency virus 1); assay: Inhibitory concentration against human immuno deficiency virus type 1 integrase (Strand Transfer)
[3] = molecular target: Integrase (Human immunodeficiency virus 1); assay: Concentration required to inhibit catalytic activity of human immuno deficiency virus type 1 integrase

Compound | IC50 [1] | IC50 [2] | IC50 [3]
O=C1/C(=C/c2ccc(O)cc2O)SC(=S)N1c1ccccc1 [5-[1-(2,4-Dihydroxy-phenyl)-meth-(Z)-ylidene]-3-phenyl-2-thioxo-thiazolidin-4-one] | > 100 µM | > 100 µM | –
CCOc1cc(C=C2SC(=S)N(NC(=O)c3ccccc3O)C2=O)ccc1O [N-{5-[1-(3-Ethoxy-4-hydroxy-phenyl)-meth-(Z)-ylidene]-4-oxo-2-thioxo-thiazolidin-3-yl}-2-hydroxy-benzamide] | 70 µM | 38 µM | –
CCOC(=O)N1CCN(C(=O)CCN2C(=O)/C(=C/c3ccc(OC)c(OC)c3)SC2=S)CC1 [4-(3-{5-[1-(3,4-Dimethoxy-phenyl)-meth-(Z)-ylidene]-4-oxo-2-thioxo-thiazolidin-3-yl}-propionyl)-piperazine-1-carboxylic acid ethyl ester] | > 100 µM | > 100 µM | –
O=C(CN1C(=O)/C(=C2\SC(=S)N(CC(=O)Nc3ccc(O)cc3)C2=O)SC1=S)Nc1ccc(O)cc1 [N-(4-Hydroxy-phenyl)-2-{(E)-3''-[(4-hydroxy-phenylcarbamoyl)-methyl]-4,4''-dioxo-2,2''-dithioxo-[5,5'']bithiazolidinyliden-3-yl}-acetamide] | 59 µM | 69 µM | –
O=C(/C=C(\O)c1ccc(Cc2ccc(F)cc2)o1)c1cc[nH]c1 | – | – | < 1 µM
Cc1ccc(/C=C2\SC(=S)N(CCC(=O)Nc3cccc(C(=O)O)c3)C2=O)cc1 [3-(3-{4-Oxo-2-thioxo-5-[1-p-tolyl-meth-(Z)-ylidene]-thiazolidin-3-yl}-propionylamino)-benzoic acid] | 100 µM | > 100 µM | –
O=C1/C(=C/c2c(NCCO)nc3ccccn3c2=O)SC(=S)N1Cc1ccco1 [3-[3-Furan-2-ylmethyl-4-oxo-2-thioxo-thiazolidin-(5E)-ylidenemethyl]-2-(2-hydroxy-ethylamino)-pyrido[1,2-a]pyrimidin-4-one] | > 100 µM | 100 µM | –
O=C(CCN1C(=O)/C(=C/c2ccc3c(c2)OCO3)SC1=S)Nc1ccc(O)c(C(=O)O)c1 [5-(3-{5-[1-Benzo[1,3]dioxol-5-yl-meth-(Z)-ylidene]-4-oxo-2-thioxo-thiazolidin-3-yl}-propionylamino)-2-hydroxy-benzoic acid] | 15 µM | 17 µM | –
CCOc1ccc(/C=C2\SC(=S)N(CCC(=O)Nc3cccc(C(=O)O)c3)C2=O)cc1 | 93 µM | > 100 µM | –
O=C(CCCN1C(=O)/C(=C\c2cccs2)SC1=S)Nc1ccc(O)c(C(=O)O)c1 [2-Hydroxy-5-(4-{4-oxo-5-[1-thiophen-2-yl-meth-(Z)-ylidene]-2-thioxo-thiazolidin-3-yl}-butyrylamino)-benzoic acid] | 44 µM | 35 µM | –
